Here are results for 24 compounds from patent US20210070748A1, “INHIBITORS OF BRUTONS TYROSINE KINASE” (Pharmacyclics LLC, priority 2015, published 2021).

SMILES strings stand for the structures.

T1 sequence (Q06187 whole entry): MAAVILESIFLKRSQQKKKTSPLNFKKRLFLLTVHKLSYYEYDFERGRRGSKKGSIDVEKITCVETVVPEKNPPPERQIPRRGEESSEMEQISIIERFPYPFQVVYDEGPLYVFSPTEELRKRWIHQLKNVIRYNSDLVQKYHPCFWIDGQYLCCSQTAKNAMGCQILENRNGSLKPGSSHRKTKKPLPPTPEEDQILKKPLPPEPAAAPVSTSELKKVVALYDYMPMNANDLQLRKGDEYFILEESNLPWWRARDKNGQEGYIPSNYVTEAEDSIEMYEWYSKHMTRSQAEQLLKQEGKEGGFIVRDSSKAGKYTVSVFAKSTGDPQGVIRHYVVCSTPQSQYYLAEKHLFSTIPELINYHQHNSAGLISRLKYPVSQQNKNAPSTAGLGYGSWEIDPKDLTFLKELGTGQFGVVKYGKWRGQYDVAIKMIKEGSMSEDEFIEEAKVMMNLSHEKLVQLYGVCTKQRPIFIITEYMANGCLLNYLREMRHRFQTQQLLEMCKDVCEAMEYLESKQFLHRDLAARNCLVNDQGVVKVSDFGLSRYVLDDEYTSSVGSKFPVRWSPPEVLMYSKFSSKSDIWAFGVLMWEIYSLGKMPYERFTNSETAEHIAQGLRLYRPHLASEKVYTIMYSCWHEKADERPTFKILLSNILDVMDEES

The first assay has as its target T1, BTK-WT (Homo sapiens, UniProt Q06187).
T1 construct: purified from insect cells as a full-length construct containing an N-terminal 6X-His tag; His6 (N); made in house; host or cells: insect cells (baculovirus Sf21 in Method B)
The experiment in a line: Btk in vitro inhibitory activity (one of Method A TR-FRET, Method B electrophoretic mobility shift, Method C radiometric filter binding). The assay is classed as biochemical. Conditions: Table 10, Formula A-I; read-out: BTK-WT (IC50). On the procedure:
Btk kinase activity is determined using a time-resolved fluorescence resonance energy transfer (TR-FRET) methodology. Measurements are performed in a reaction volume of 50 μL using 96-well assay plates. […] The reaction is quenched by the addition of 1.2 equivalents of EDTA (relative to divalent cation) in 25 μL of 1× Lance buffer (Perkin-Elmer). […] The TR-FRET signal is measured on a multimode plate reader with an excitation wavelength (λEx) of 330 nm and detection wavelengths (λEm) of 615 and 665 nm. Activity is determined by the ratio of the fluorescence at 665 nm to that at 615 nm. For each compound, enzyme activity is measured at various concentrations of compound. Negative control reactions are performed in the absence of inhibitor in replicates of six, and two no-enzyme controls are used to determine baseline fluorescence levels. Inhibition constants, Ki(app), were obtained using the program BatchKi(Kuzmic et al. (2000), Anal. Biochem. 286:45-50). IC50s are obtained according to the equation:
IC50={Ki(app)/(1+[ATP]/Km^ATP)}+[E]total/2;
Kinase activity is measured in vitro using electrophoretic mobility shift assay. The kinase reactions are assembled in a total volume of 25 μL in 384 well plates. […] The reaction is incubated for one hour and is quenched by the addition of 45 μL of termination buffer (100 mM HEPES, pH7.5, 0.01% Triton X-100, 30 mM EDTA). The terminated reactions are analyzed using 12 channel LabChip® 3000 microfluidic detection instrument (Caliper Life Sciences). […] Change in the relative fluorescence intensity of the substrate and product peaks is the parameter measured, reflecting enzyme activity. In the presence of an inhibitor, the ratio between product and substrate is altered: the signal of the product decreases, while the signal of the substrate increases.
Activity in each sample is determined as the product to sum ratio (PSR): P/(S+P), where P is the peak height of the product peptide and S is the peak height of the substrate peptide. For each compound, enzyme activity is measured at various concentrations (12 concentrations of compound spaced by 3× dilution intervals). Negative control samples (0%-inhibition in the absence of inhibitor) and positive control samples (100%-inhibition, in the presence of 20 mM EDTA) are assembled in replicates of four and are used to calculate %-inhibition values for each inhibitor at each concentration. Percent inhibition (Pinh) is determined using following equation:
Pinh=(PSR0%-PSRinh)/(PSR0%−PSR100%)*100, where PSRinh is the product sum ratio in the presence of inhibitor, PSR0% is the average product sum ration in the absence of inhibitor and PSR100% is the average product sum ratio in 100%-inhibition control samples;
The IC50 values of inhibitors are determined by 4 parameter sigmoidal dose-response model fitting of the inhibition curves (Pinh versus inhibitor concentration) using XLfit 4 software.
Human Btk kinase (Genbank accession # NP_000052) was purified from insect cells as a full-length construct containing an N-terminal 6X-His tag. Btk kinase activity was determined using a radiometric filter binding assay. Measurements are performed in a low μL reaction volume 384-well assay plates. […] IC50 values and curve fits were obtained using Prism (GraphPad Software).
(In general: In EMSA bound probe runs differently from free probe, usually more slowly.)
As usually defined, the IC50 is the concentration that gives 50% inhibition. As for `C=CC(=O)N[C@H]1CCCN(c2cnc(C(N)=O)c(Nc3ccc(-c4ncccn4)cc3)n2)C1` [Example A-89, (S)-5-(3-acrylamidopiperidin-1-yl)-3-(4-(pyrimidin-2-yl)phenylamino)pyrazine-2-carboxamide], the 50% inhibitory concentration (IC50) is not above 100 nM.
For the compound `C=CC(=O)N1CCCN(c2nnc(C(N)=O)c(Nc3ccc(C(C)C)cc3)n2)CC1` [Example A-90, 3-(4-acryloyl-1,4-diazepan-1-yl)-5-(4-isopropylphenylamino)-1,2,4-triazine-6-carboxamide], the IC50 was not above 100 nM.
On the same count and under the same terms, the value for `C=CC(=O)N[C@H]1CCCN(c2cnc(C(N)=O)c(Nc3cc(C)ns3)n2)C1` [Example A-87, (S)-5-(3-acrylamidopiperidin-1-yl)-3-(3-methylisothiazol-5-ylamino)pyrazine-2-carboxamide] was not above 100 nM; that for `C=CC(=O)N[C@@H]1CCCN(c2cnc(C(N)=O)c(Nc3cc(C)ns3)n2)C1` [Example A-86, (R)-5-(3-acrylamidopiperidin-1-yl)-3-(3-methylisothiazol-5-ylamino)pyrazine-2-carboxamide] was not above 100 nM; that for `C=CC(=O)N[C@@H]1CCCN(c2cnc(C(N)=O)c(Nc3cccc(-c4ncccn4)c3)n2)C1` [Example A-88, (R)-5-(3-acrylamidopiperidin-1-yl)-3-(3-(pyrimidin-2-yl)phenylamino)pyrazine-2-carboxamide] was 100 to 1000 nM.

The assay is the same for the next values; noted with them: Table 11, Formula B-I; read-out: BTK-WT (IC50).
With `C=CC(=O)N[C@@H]1CCCC[C@@H]1Nc1nnc(C(N)=O)c(Nc2ccc(C(C)C)cc2)n1` [Example B-10, 3-((1S,2R)-2-acrylamido-cyclohexylamino)-5-(4-isopropylphenylamino)-1,2,4-triazine-6-carboxamide], the IC50 is not above 100 nM.
For `C=CC(=O)N(C)[C@H]1CC[C@H](N(C)c2cnc(C(N)=O)c(Nc3cc(C)ns3)n2)CC1` [Example B-6, 5-(methyl((1r,4r)-4-(N-methylacrylamido)cyclohexyl)amino)-3-(3-methylisothiazol-5-ylamino)pyrazine-2-carboxamide], the IC50 was not above 100 nM.
Still for that read-out and setting: the value for `C=CC(=O)N[C@@H]1CCC[C@@H](Nc2nnc(C(N)=O)c(Nc3ccc(C(C)C)cc3)n2)C1` (racemic) [Example B-11, 3-((1R,3R)-3-acrylamido-cyclohexylamino)-5-(4-isopropylphenylamino)-1,2,4-triazine-6-carboxamide] was not above 100 nM; that for `C=CC(=O)N[C@@H]1CCCC[C@H]1Nc1nnc(C(N)=O)c(Nc2ccc(C(C)C)cc2)n1` [Example B-8, 3-((1R,2R)-2-acrylamido-cyclohexylamino)-5-(4-isopropylphenylamino)-1,2,4-triazine-6-carboxamide] was not above 100 nM.
The same measure, in the same setting: as for `C=CC(=O)N[C@H]1CCC[C@@H](Nc2nnc(C(N)=O)c(Nc3ccc(C(C)C)cc3)n2)C1` (racemic) [Example B-12, 3-((1R,3S)-3-acrylamido-cyclohexylamino)-5-(4-isopropylphenylamino)-1,2,4-triazine-6-carboxamide], the figure is not above 100 nM.
Same read-out and setting: the value for `C=CC(=O)N[C@H]1CCCC[C@H]1Nc1nnc(C(N)=O)c(Nc2ccc(C(C)C)cc2)n1` [Example B-7, 3-((1R,2S)-2-acrylamido-cyclohexylamino)-5-(4-isopropylphenylamino)-1,2,4-triazine-6-carboxamide] was not above 100 nM; that for `C=CC(=O)N[C@H]1CCCC[C@@H]1Nc1nnc(C(N)=O)c(Nc2ccc(C(C)C)cc2)n1` [Example B-9, 3-((1S,2S)-2-acrylamido-cyclohexylamino)-5-(4-isopropylphenylamino)-1,2,4-triazine-6-carboxamide] was not above 100 nM.

Still in this assay, the particulars now being: Table 12, Formula C-I; read-out: BTK-WT (IC50).
For `C=CC(=O)N1CCC(CNc2nnc(C(N)=O)c(Nc3ccc(C(C)C)cc3)n2)CC1` [Example C-22, 3-((1-acryloylpiperidin-4-yl)methylamino)-5-(4-isopropylphenylamino)-1,2,4-triazine-6-carboxamide], the IC50 was not above 100 nM.
The same measure, in the same setting: as for `C=CC(=O)NCC(=O)N1CCC[C@H](Nc2nnc(C(N)=O)c(Nc3ccc(C(C)C)cc3)n2)C1` [Example C-19, (S)-3-(1-(2-acrylamidoacetyl)piperidin-3-ylamino)-5-(4-isopropylphenylamino)-1,2,4-triazine-6-carboxamide], the figure is 100 to 1000 nM.
`C=CC(=O)N1CCC[C@H](N(C)c2cnc(C(N)=O)c(Nc3ccc(C(C)C)cc3)n2)C1` [Example C-23, (S)-5-((1-acryloylpiperidin-3-yl)(methyl)amino)-3-(4-isopropylphenylamino)pyrazine-2-carboxamide]: the IC50 was not above 100 nM.
For the compound `C=CC(=O)NCCCC(=O)N1CCC[C@H](Nc2nnc(C(N)=O)c(Nc3ccc(C(C)C)cc3)n2)C1` [Example C-21, (S)-3-(1-(4-acrylamidobutanoyl)piperidin-3-ylamino)-5-(4-isopropylphenylamino)-1,2,4-triazine-6-carboxamide], the IC50 fell in the range of 100 to 1000 nM.
Turning to `CC(C)c1ccc(Nc2nc(N[C@H]3CCCN(C(=O)CCCN)C3)nnc2C(N)=O)cc1` [Example C-20, (S)-3-(1-(4-aminobutanoyl)piperidin-3-ylamino)-5-(4-isopropylphenylamino)-1,2,4-triazine-6-carboxamide], the IC50 fell in the range of 100 to 1000 nM.
Consider `C=CC(=O)N1CCC[C@H](N(C)c2cnc(C(N)=O)c(Nc3cc(-c4ccccc4)ns3)n2)C1` [Example C-25, (S)-5-((1-acryloylpiperidin-3-yl)(methyl)amino)-3-(3-phenylisothiazol-5-ylamino)pyrazine-2-carboxamide], for which the IC50 was not above 100 nM.
In the case of `C=CC(=O)N1CCC(CN(C)c2cnc(C(N)=O)c(Nc3ccc(C(C)C)cc3)n2)CC1` [Example C-24, 5-(((1-acryloylpiperidin-4-yl)methyl)(methyl)amino)-3-(4-isopropylphenylamino)pyrazine-2-carboxamide], the IC50 was not above 100 nM.
Same read-out and setting: the value for `C=CC(=O)N1CCC[C@H](Nc2nnc(C(N)=O)c(Nc3ccc(C(C)C)cc3)n2)C1` [Example C-17, (S)-3-(1-acryloylpiperidin-3-ylamino)-5-(4-isopropylphenylamino)-1,2,4-triazine-6-carboxamide] was not above 100 nM; that for `C=CC(=O)N1CCC[C@@H](Nc2nnc(C(N)=O)c(Nc3ccc(C(C)C)cc3)n2)[C@H]1C` [Example C-28, 3-((2R,3R)-1-acryloyl-2-methylpiperidin-3-ylamino)-5-(4-isopropylphenylamino)-1,2,4-triazine-6-carboxamide] was not above 100 nM.
Same read-out and setting: as for `C=CC(=O)N1CCC[C@@H](N(C)c2nnc(C(N)=O)c(Nc3ccc(C(C)C)cc3)n2)C1` [Example C-27, (R)-3-((1-acryloylpiperidin-3-yl)(methyl)amino)-5-(4-isopropylphenylamino)-1,2,4-triazine-6-carboxamide], the figure is not above 100 nM; as for `C=CC(=O)N1CCC[C@@H](Nc2nnc(C(N)=O)c(Nc3ccc(C(C)C)cc3)n2)C1` [Example C-26, (R)-3-(1-acryloylpiperidin-3-ylamino)-5-(4-isopropylphenylamino)-1,2,4-triazine-6-carboxamide], not above 100 nM.
The same measure, in the same setting: as for `CC(C)c1ccc(Nc2nc(N[C@H]3CCCN(C(=O)CN)C3)nnc2C(N)=O)cc1` [Example C-18, (S)-3-(1-(2-aminoacetyl)piperidin-3-ylamino)-5-(4-isopropylphenylamino)-1,2,4-triazine-6-carboxamide], the figure is 100 to 1000 nM.
